# Values quoted from earlier work, collected in patent US20210213132A1, “FORMULATIONS OF SN-38 WITH POLY(AMINO ACID) BLOCK POLYMERS” (Tyndall Formulation Services, LLC, priority 2020, published 2021).
# Like-named read-outs stand apart in the source and are kept apart here.
# What was measured:
# [1] = target: T1, topoisomerase I (Homo sapiens, UniProt P11387); details: SN-38 versus irinotecan
# T1 sequence (P11387 1-765): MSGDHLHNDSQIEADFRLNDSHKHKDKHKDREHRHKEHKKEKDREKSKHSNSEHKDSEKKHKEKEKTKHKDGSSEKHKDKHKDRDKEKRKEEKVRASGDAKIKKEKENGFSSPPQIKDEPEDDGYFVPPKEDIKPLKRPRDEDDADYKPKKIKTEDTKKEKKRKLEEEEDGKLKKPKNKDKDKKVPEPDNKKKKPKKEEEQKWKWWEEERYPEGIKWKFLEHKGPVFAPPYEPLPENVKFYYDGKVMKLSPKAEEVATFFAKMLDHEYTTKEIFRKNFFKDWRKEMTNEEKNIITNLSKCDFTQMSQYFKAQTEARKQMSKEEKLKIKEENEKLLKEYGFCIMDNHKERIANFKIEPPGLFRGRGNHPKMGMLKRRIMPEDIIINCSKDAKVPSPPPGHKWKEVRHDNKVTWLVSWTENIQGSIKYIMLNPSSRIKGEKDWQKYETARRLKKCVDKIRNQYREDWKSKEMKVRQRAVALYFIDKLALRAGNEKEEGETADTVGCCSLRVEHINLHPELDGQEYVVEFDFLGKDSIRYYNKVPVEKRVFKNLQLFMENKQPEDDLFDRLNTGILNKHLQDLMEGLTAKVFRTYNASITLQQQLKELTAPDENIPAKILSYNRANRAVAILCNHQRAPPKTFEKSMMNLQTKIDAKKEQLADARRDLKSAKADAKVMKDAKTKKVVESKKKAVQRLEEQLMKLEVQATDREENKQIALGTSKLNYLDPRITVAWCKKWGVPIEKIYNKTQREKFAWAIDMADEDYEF
# [2] = system: carboxylesterases, specifically CES1 and CES2
# [3] = system: metastatic colorectal cancer patients; details: patients treated with irinotecan
Percentage of patients experiencing asthenia ([3]; UGT1A1 *1/*1 genotype) [%],Percentage of patients experiencing diarrhea ([3]; UGT1A1 *1/*1 genotype) [%],Percentage of patients experiencing neutropenia ([3]; UGT1A1 *1/*1 genotype) [%],Percentage of patients experiencing asthenia ([3]; UGT1A1 *1/*28 genotype) [%],Percentage of patients experiencing diarrhea ([3]; UGT1A1 *1/*28 genotype) [%],Percentage of patients experiencing neutropenia ([3]; UGT1A1 *1/*28 genotype) [%],Percentage of patients experiencing asthenia ([3]; UGT1A1 *28/*28 genotype) [%],Percentage of patients experiencing diarrhea ([3]; UGT1A1 *28/*28 genotype) [%],Percentage of patients experiencing neutropenia ([3]; UGT1A1 *28/*28 genotype) [%],SMILES,Solubility in aqueous media,Potency relative to irinotecan [1] [fold],Affinity of the carboxylesterases for irinotecan [2]
,,,,,,,,,CCc1c2c(nc3ccc(O)cc13)-c1cc3c(c(=O)n1C2)COC(=O)[C@]3(O)CC [SN-38],extremely insoluble,100 to 1000,
25,17,15,38,33,27,70,70,40,CCc1c2c(nc3ccc(OC(=O)N4CCC(N5CCCCC5)CC4)cc13)-c1cc3c(c(=O)n1C2)COC(=O)[C@]3(O)CC [Irinotecan],,,low
